The assay deals with T1, HM74A receptor (Homo sapiens, UniProt Q8TDS4).
T1 construct: expressed in transfected cells; host or cells: HEK-293 cells (stably transfected), membrane preparation
In words: Primary radiolabelled ligand competition binding assay ([3H]-nicotinic acid). The note with it: inhibition of [3H]-nicotinic acid binding, membranes of HEK-293 cells stably transfected with the HM74A receptor. On the procedure: Primary Radiolabelled Ligand Competition Binding Assay
Nicotinic acid binding assays were performed with membrane preparations. A cell pellet containing 1×10^8 HEK-293 cells, stably transfected with the HM74A receptor, was resuspended in 3 ml of ice cold Dounce Buffer (10 mM Tris-Cl pH 7.6, 0.5 mM MgCl2) supplemented with Roche protease inhibitor cocktail and homogenized at high speed on a Polytron homogenizer two times for 20 sec on ice. Nuclei and unbroken cells were removed by centrifugation for 5 min at 1,000×g after the addition of 1 ml of tonicity restoration buffer (10 mM Tris pH 7.6, 0.5 mM MgCl2, 600 mM NaCl). The homogenate was centrifuged at 60,000×g for 30 min and pellets were resuspended in Tris buffer (50 mM Tris pH 7.4, containing protease inhibitors). Binding reactions contained 20 µg membranes as determined by BCA protein assay (Pierce), 50 nM [^3H]-nicotinic acid (Amersham) with or without compound addition in 250 μl of binding buffer (50 mM Tris pH 7.4, 2 mM MgCl2, 0.02% CHAPS). […] Bound [^3H]-nicotinic acid was determined by scintillation counting using Top Count NXT (PerkinElmer). […] The effects of compounds were expressed as % inhibition of [^3H]-nicotinic acid binding. Sigmoidal curves were fitted using the XLfit3 program (ID Business Solutions Ltd. UK) and IC50 values determined.

As usually defined, the IC50 is the concentration at which inhibition is half-maximal. Low values mean higher potency, high ones lower potency.

T1 sequence (Q8TDS4 whole entry): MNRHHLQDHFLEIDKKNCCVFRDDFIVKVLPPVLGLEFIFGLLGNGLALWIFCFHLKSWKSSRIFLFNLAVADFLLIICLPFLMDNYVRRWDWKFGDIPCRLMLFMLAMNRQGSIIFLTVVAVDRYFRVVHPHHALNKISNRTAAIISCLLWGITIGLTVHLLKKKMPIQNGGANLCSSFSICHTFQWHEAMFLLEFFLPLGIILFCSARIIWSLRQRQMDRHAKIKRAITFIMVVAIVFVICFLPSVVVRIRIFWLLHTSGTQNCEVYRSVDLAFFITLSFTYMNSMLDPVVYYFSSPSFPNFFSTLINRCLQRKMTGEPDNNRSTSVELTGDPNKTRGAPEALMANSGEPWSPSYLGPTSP

For the molecule `O=c1[nH]c(COCCc2cc(F)ccc2F)nc2nccnc12` [Example 2, 2-[2-(2,5-Difluoro-phenyl)-ethoxymethyl]-3H-pteridin-4-one], the IC50 came out at 2.39 µM.
`O=c1[nH]c(COCCc2cccc(Cl)c2)nc2nnccc12` [Example 7, 7-[2-(3-Chloro-phenyl)-ethoxymethyl]-6H-pyrimido[4,5-c]pyridazin-5-one]: the concentration for half-maximal inhibition (IC50) amounted to 0.668 µM.
